Our source for the Residual binding and Ki values is ChEMBL document CHEMBL1134750, “Structure-activity relationship on the human EP3 prostanoid receptor by use of solid-support chemistry” (Bioorg Med Chem Lett, 2001).

Experiment [1] deals with T1, Prostaglandin E2 receptor EP3 subtype (Homo sapiens) (UniProt P43115).
T1 sequence (whole entry): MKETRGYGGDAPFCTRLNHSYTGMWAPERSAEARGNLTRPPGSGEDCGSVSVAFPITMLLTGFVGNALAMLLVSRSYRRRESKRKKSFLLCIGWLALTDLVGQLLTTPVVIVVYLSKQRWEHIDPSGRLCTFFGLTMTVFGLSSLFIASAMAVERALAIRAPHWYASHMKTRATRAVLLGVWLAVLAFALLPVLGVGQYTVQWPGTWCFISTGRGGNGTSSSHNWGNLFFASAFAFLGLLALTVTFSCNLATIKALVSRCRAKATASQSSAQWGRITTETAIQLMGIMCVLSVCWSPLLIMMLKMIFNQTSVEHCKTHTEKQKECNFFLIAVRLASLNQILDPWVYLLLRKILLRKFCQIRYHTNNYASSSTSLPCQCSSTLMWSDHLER
In words: Residual binding of radiolabeled PGE-2 on the Prostanoid EP3 receptor at a concentration of 1 uM.

The next experiment concerns the target T2, Thromboxane A2 receptor (Homo sapiens, UniProt P21731).
T2 sequence (P21731 whole entry): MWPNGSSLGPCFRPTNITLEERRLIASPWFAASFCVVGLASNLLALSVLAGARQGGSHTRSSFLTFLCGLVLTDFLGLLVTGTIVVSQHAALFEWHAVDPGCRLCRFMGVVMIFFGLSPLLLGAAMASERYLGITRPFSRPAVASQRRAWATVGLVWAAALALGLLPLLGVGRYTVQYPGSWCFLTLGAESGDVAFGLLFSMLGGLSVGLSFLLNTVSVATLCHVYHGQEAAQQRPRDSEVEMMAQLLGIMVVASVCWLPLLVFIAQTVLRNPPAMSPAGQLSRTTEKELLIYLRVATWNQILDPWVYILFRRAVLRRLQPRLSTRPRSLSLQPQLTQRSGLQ
In words: Antagonistic activity at Thromboxane A2 receptor in human was determined. The experiment is classed as functional.

For experiment [2], the target named is Prostaglandin E2 receptor EP2 subtype (Homo sapiens, UniProt P43116). The experiment is described as follows: Antagonistic activity at Prostanoid EP2 receptor in human was determined. It counts as functional.
Experiment [3] concerns the target Prostaglandin F2-alpha receptor (Homo sapiens, UniProt P43088). The experiment is described as follows: Antagonistic activity at Prostanoid FP receptor in human was determined. It counts as functional.
In experiment [4] the target is T3, Prostaglandin E2 receptor EP1 subtype (Homo sapiens, UniProt P34995).
T3 sequence (P34995 whole entry): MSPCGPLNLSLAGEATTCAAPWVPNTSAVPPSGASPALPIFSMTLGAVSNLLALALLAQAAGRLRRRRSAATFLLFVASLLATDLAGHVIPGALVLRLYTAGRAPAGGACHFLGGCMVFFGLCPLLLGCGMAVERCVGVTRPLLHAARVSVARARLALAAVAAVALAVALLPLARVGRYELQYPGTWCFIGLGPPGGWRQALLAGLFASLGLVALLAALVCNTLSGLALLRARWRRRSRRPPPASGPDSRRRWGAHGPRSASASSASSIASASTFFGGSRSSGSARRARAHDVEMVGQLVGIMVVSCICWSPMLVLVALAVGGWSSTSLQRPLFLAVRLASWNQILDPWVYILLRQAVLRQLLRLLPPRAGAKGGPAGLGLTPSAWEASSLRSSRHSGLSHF
The experiment is described as follows: Antagonistic activity at Prostanoid EP1 receptor in human was determined. The experiment is classed as functional.

In experiment [5] the target is T4, Prostaglandin E2 receptor EP3 subtype (Homo sapiens, UniProt P43115).
T4 sequence (P43115 whole entry): T1 sequence (whole entry)
In words: Antagonistic activity at Prostanoid EP3 receptor in human was determined. It counts as functional.

A further experiment concerns the target Prostacyclin receptor (Homo sapiens, UniProt P43119). In words: Antagonistic activity at Prostanoid IP receptor in human was determined. It counts as functional.
In experiment [6] the target is Prostaglandin E2 receptor EP4 subtype (Homo sapiens, UniProt P35408). The experiment is described as follows: Antagonistic activity at Prostanoid EP4 receptor in human was determined. The experiment is classed as functional.
Experiment [7] addresses T5, Prostaglandin D2 receptor (Homo sapiens, UniProt Q13258).
T5 sequence (Q13258 whole entry): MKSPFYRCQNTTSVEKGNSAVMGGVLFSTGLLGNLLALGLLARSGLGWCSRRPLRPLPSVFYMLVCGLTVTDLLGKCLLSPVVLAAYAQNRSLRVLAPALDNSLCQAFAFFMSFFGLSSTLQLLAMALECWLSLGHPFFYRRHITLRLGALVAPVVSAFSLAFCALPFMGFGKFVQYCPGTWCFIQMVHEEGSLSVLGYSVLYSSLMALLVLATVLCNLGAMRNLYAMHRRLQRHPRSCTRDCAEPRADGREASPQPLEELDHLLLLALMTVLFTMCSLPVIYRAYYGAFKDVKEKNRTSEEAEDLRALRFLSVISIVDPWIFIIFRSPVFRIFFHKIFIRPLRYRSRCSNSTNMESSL
The experiment is described as follows: Antagonistic activity at Prostanoid DP receptor in human was determined. It counts as functional.

In general, Ki refers to a dissociation constant, usually derived from enzyme kinetics or from competition with a known ligand. A lower Ki goes with higher affinity.

Prostaglandin E2 receptor EP4 subtype, sequence (P35408 whole entry): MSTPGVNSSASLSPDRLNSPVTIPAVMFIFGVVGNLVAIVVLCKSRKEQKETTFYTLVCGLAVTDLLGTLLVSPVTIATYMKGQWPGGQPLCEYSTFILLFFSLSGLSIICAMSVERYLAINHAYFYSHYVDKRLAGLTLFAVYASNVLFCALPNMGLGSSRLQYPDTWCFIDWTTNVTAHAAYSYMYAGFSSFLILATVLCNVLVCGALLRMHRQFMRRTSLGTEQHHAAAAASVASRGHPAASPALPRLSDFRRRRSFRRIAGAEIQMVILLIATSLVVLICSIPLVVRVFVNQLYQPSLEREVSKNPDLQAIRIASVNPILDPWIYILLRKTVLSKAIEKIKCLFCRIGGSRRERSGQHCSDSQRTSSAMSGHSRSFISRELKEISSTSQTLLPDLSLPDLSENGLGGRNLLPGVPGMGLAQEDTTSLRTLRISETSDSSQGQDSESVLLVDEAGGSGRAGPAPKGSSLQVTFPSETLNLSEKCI
Prostaglandin F2-alpha receptor, sequence (P43088 whole entry): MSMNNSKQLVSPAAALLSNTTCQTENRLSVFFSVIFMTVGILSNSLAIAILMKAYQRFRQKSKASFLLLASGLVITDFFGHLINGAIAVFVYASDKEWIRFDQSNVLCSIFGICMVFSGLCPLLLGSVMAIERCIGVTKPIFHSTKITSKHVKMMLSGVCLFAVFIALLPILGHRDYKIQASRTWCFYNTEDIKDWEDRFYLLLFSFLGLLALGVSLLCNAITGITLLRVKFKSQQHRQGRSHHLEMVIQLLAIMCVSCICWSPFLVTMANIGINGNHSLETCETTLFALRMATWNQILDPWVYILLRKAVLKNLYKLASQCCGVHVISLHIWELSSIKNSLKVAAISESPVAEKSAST
Prostacyclin receptor, sequence (P43119 whole entry): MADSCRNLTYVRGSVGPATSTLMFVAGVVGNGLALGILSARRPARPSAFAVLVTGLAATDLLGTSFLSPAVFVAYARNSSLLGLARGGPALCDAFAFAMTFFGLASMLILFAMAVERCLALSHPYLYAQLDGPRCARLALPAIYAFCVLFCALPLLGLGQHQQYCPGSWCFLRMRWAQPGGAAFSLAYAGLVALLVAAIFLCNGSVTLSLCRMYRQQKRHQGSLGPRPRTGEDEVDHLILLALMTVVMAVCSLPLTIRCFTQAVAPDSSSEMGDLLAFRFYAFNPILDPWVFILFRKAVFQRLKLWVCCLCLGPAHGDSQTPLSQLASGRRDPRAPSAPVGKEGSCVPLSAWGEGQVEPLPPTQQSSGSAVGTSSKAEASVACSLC
Prostaglandin E2 receptor EP2 subtype, sequence (P43116 whole entry): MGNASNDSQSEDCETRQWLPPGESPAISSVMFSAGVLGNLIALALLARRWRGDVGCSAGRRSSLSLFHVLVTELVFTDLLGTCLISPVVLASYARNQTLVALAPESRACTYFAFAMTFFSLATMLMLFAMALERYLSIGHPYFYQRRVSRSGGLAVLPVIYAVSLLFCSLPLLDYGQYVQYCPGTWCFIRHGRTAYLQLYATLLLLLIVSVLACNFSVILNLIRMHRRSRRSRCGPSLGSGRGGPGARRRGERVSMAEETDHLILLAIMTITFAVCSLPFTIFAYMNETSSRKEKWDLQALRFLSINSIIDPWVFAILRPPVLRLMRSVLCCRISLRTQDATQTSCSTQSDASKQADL

As for `OB(O)c1ccco1`, in [1], the Residual binding worked out at 91%.
The same measure, in the same setting: then `COc1ccccc1B(O)O`, with 93%.
In experiment [1], `OB(O)c1cccs1` had a Residual binding of 74%.
Compound `OB(O)c1ccccc1C(F)(F)F` registered a Residual binding in [1] of 89%.
`O=C(O)/C=C/c1ccccc1Cc1ccc2ccccc2c1`: the inhibition constant (Ki) at Thromboxane A2 receptor was 10 µM; in [2] it was 12 µM; in [3] it was 69 µM; in [4], greater than 100 µM; in experiment [5], 0.02 µM; at Prostacyclin receptor, greater than 100 µM. Besides, the values for the inhibitory constant (Ki) in experiment [6] and in experiment [7] were 3.1 µM and 0.53 µM, respectively.
For the compound `CSc1ccc(B(O)O)cc1`, the Residual binding in [1] turned out to be 27%.
Still for that read-out and setting: the value for `OB(O)c1cccc2ccccc12` was 48%; that for `COc1ccc(B(O)O)cc1OC` was 84%.
As to `O=C(O)/C=C/c1ccccc1Cc1ccc(Cl)c(Cl)c1`, the inhibition constant Ki on Thromboxane A2 receptor was determined as 0.9 µM; in [2], 13 µM; in experiment [3], 41 µM; in [4], 63 µM; in [5], 0.032 µM; at Prostacyclin receptor, 37 µM. The inhibition constant Ki in experiment [6] amounted to 10 µM; in experiment [7], 2.4 µM.
Compound `OB(O)c1cccc(C(F)(F)F)c1` yielded a Residual binding in [1] of 54%.
Same read-out and setting: the value for `OB(O)c1ccc(Cl)c(Cl)c1` was 8%; that for `OB(O)c1cccc(CSCCc2ccccc2)c1` was 52%.
On the same count and under the same terms, then `OB(O)c1ccsc1`, with 77%; and `OB(O)c1ccc(Cl)cc1Cl`, with 25%; and `CC(C)(C)NS(=O)(=O)c1ccc(B(O)O)cc1`, with 100%.
Same read-out and setting: the value for `OB(O)c1cc2ccccc2o1` was 61%.
`OCc1cccc(B(O)O)c1` came in with a Residual binding in [1] of 84%.
Turning to `OB(O)c1ccc2ccccc2c1`, the Residual binding in experiment [1] is 5%.
Turning to `CSc1ccc(Cc2ccccc2/C=C/C(=O)O)cc1`, the Ki on Thromboxane A2 receptor is 4.6 µM; in experiment [2], 43 µM; in experiment [3] it was greater than 83 µM; in experiment [4], greater than 100 µM; in experiment [5], 0.08 µM; at Prostacyclin receptor, greater than 76 µM. Besides, the inhibition constant (Ki) in experiment [6] was greater than 50 µM; in experiment [7] it was 4.1 µM.
As to `OB(O)c1cccc(Cl)c1`, in [1], the Residual binding was found to be 55%.
In the case of `CSc1ccccc1B(O)O`, in experiment [1], the Residual binding was 96%.
Turning to `OB(O)c1ccccc1CSCCc1ccccc1`, the Residual binding in [1] came to 68%.
`O=C(O)/C=C/c1ccccc1Cc1ccc(Cl)cc1Cl`: the inhibition constant (Ki) at Thromboxane A2 receptor was 0.52 µM; in experiment [2] it was 4.1 µM; in experiment [3] it was 63 µM; in experiment [4], greater than 100 µM; in experiment [5] it was 0.11 µM; on Prostacyclin receptor, 31 µM. Further, the inhibition constant Ki is greater than 40 µM in experiment [6] and 2.5 µM in experiment [7].
